Converted amounts (≈) assume the structure as drawn. Read-outs that look alike come from different tables or passages of the source. Residues, ends and D or L forms follow the SMILES beside them.
Key:
ETa = ETa (Homo sapiens (Human), UniProt P25101); test: Calcium flux assay on ETa cell line; assay type: cell-based; details: ETa/HEK293, calcium flux, endothelin-1 agonist
Description: (§1) Test materials: a) cell line: ETa/HEK293; b) vehicles: DMEM, Invitrogen (Cat #11960); Geneticin, Invitrogen (Cat #10131); c) reagent: Fluo-4 Direct, (Invitrogen, Cat #F10471); d) instruments: 384 well Poly-D-Lysine protein coating plate, Greiner #781946; Vi-cell XR Cell Viability Analyzer, Beckman Coulter; Incubator, Thermo.
For the employed agonist endothelin factor (endothelin-1, ET-1) master plate: the agonist was diluted from 50 μM to 15 μM with the test buffer solution.
For antagonist (BQ123, Am J Physiol. 1994 April; 266 (4 Pt 2): H1327-31.) plates and the compound plates: the antagonist and the tested compounds were diluted with DMSO at a gradient ratio of 1:4 to obtain 10 concentration points. Afterwards, 900 nL of each compound solution was transferred to the master plate and 30 μL of the test buffer solution was added. • a) The cell line was removed from the incubator, and 20 μL of 2X Fluo-4 Direct™ buffer solution was added gently by a pipette to a 384-well cell culture plate. • b) The cell plate was incubated at 37° C. for 50 min in the environment of 5% CO2, and then incubated at room temperature for 10 min. • c) The cell plate was removed from the incubator and placed in FLIPR. The compound plates and the tip box were placed in FLIPR. • d) Regarding the EC80 plate: • 1) Operations were conducted on […]. • 2) 10 μL of compound solution was transferred from the EC80 master plate to the cell plate. • 3) Fluorescence signals were read. • 4) The read signals were counted, and the EC80 value of each cell line was calculated using FLIPR. • 5) For the concentration of the compound plate, a solution having a concentration 6 times that of the reference agonist EC80 was formulated. • e) Regarding the compound plate: • 1) Operations were conducted on […]. • 2) 10 μL of compound was transferred to the cell plate. • 3) Fluorescence signals were read. • 4) 10 μL of solution having a concentration 6 times that of the reference agonist EC80 was transferred to the cell plate. • 5) Fluorescence signals were read. • f) Data analysis by Prism

AT1 = AT1 (Homo sapiens (Human), UniProt P30556); test: Calcium flux assay on AT1 cell line; assay type: cell-based; details: AT1/HEK293, calcium flux, angiotensin II agonist
Description: as §1, with “AT1/HEK293;” for “ETa/HEK293;”, “F12,” for “DMEM,”, “#11765-047); FBS, Corning (Cat #35-076-CV);” for “#11960);”
For the agonist (angiotensin II) master plate, the agonist solution was diluted from 1 mM to 200 μM with the test buffer solution. […] Afterwards, 900 nL of each compound solution was transferred to the master plate and 30 μL of the test buffer solution was added. • a) The cell plate was removed from the incubator, and 20 μL of 2X Fluo-4 Direct was added by a pipette to a 384-well cell plate. • b) The cell plate was incubated at 37° C. for 50 min in the environment of 5% CO2, and then incubated at room temperature for 10 min. • c) The cell plate was removed from the incubator and placed in FLIPR. The compound plates and the tip box were placed in FLIPR. • d) Regarding the EC80 plate: • 1) Operations were conducted on […]. • 2) 10 μL of compound solution was transferred from the EC80 master plate to the cell plate. • 3) Fluorescence signals were read. • 4) The read signals were counted, and the EC80 value of each cell line was calculated using FLIPR. • 5) For the concentration of the compound plate, a solution having a concentration 6 times that of the reference agonist EC80 was formulated. • e) Regarding the compound plate: • 1) Operations were conducted on […]. • 2) 10 μL of compound was transferred to the cell plate. • 3) Fluorescence signals were read. • 4) 10 μL of solution having a concentration 6 times that of the reference agonist EC80 was transferred. • 5) Fluorescence signals were read. • f) Data analysis by Prism

[1] = Experiment on water solubility (HPLC-UV); assay type: physicochemical
Description: The detection was carried out in accordance with the high performance liquid chromatography (General Principles 0512 of Chinese Pharmacopoeia Volume IV (2020)):
Chromatographic conditions for the HPLC-UV method: mobile phase: 0.02 M KH2PO4 aqueous solution-acetonitrile (90:10), gradient elution; chromatographic column: C18; detection wavelength: 210 nm. The water solubility was calculated based on the peak area by the external standard method.

ETa, sequence (P25101 21-427): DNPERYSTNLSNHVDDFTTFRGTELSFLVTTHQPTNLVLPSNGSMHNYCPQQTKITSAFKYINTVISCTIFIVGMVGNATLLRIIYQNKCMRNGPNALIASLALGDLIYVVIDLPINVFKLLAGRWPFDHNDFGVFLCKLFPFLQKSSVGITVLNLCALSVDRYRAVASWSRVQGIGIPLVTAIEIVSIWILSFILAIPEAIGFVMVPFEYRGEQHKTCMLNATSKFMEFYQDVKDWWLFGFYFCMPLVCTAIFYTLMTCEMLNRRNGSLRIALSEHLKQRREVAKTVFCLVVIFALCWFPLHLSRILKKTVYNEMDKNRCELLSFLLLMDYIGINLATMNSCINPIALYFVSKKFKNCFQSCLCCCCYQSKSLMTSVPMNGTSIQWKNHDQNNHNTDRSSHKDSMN
AT1, sequence (P30556 whole entry): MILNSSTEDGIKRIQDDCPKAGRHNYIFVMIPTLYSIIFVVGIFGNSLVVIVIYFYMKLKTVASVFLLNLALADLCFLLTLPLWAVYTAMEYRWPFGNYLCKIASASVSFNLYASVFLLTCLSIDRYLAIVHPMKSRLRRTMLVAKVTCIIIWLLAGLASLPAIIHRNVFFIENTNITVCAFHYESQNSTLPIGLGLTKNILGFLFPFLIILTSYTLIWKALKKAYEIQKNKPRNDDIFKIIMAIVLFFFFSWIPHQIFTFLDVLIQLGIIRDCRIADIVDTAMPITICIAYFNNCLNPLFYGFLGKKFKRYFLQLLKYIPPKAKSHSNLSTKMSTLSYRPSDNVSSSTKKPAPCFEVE

Row | IC50 (ETa; read-out: IC50 against ETa) | IC50 (AT1; read-out: IC50 against AT1) | solubility ([1]; aqueous medium at pH 7.4 (buffer not named), pH 7.4, aqueous buffer, pH7.4, read-out: Solubility pH7.4) | solubility ([1]; pH 1.6, fassgf or other biorelevant, FaSSGF (pH1.6), read-out: Solubility FaSSGF (pH1.6)) | solubility ([1]; pH 5, FeSSIF (pH5.0), read-out: Solubility FeSSIF (pH5.0)) | solubility ([1]; pH 6.5, FaSSIF (pH6.5), read-out: Solubility FaSSIF (pH6.5)) | IC50 (AT1; read-out: IC50 activity against AT1 (class)) | SMILES | IC50 (ETa; read-out: IC50 activity against ETa (class))
1 | 24.6 nM | 2.9 nM | 370 µg/mL (≈ 612 µM) | > 1000 µg/mL | 200 µg/mL (≈ 331 µM) | 610 µg/mL (≈ 1010 µM) |  | CCCCC1=NC2(CC3(CC3)C2)C(=O)N1Cc1ccc(-c2ccccc2S(=O)(=O)Nc2noc(C)c2C)c(COCC)c1 [Example 1] | 
2 | 132 nM | 4.78 nM |  |  |  |  | 1 to 10 nM | CCCCC1=N[C@]2(C[C@H]3C[C@H]3C2)C(=O)N1Cc1ccc(-c2ccccc2S(=O)(=O)Nc2noc(C)c2C)c(COCC)c1 [Example 4] | 
3 | 17.6 nM | 258 nM |  |  |  |  |  | CCCCC1=N[C@]2(C[C@H]3C[C@H]3C2)C(=O)N1Cc1ccc(-c2ccccc2S(=O)(=O)Nc2noc(C)c2C)c(CN(C)C(=O)CC(C)(C)C)c1 [Example 6] | 

Row | SMILES | IC50 (ETa; read-out: IC50 against ETa) | IC50 (AT1; read-out: IC50 against AT1) | solubility ([1]; aqueous medium at pH 7.4 (buffer not named), pH 7.4, aqueous buffer, pH7.4, read-out: Solubility pH7.4) | solubility ([1]; pH 1.6, fassgf or other biorelevant, FaSSGF (pH1.6), read-out: Solubility FaSSGF (pH1.6)) | solubility ([1]; pH 5, FeSSIF (pH5.0), read-out: Solubility FeSSIF (pH5.0)) | solubility ([1]; pH 6.5, FaSSIF (pH6.5), read-out: Solubility FaSSIF (pH6.5)) | IC50 (AT1; read-out: IC50 activity against AT1 (class)) | IC50 (ETa; read-out: IC50 activity against ETa (class))
4 | CC(C)C[C@@H]1NC(=O)[C@@H](C(C)C)NC(=O)[C@@H]2CCCN2C(=O)[C@@H](CC(=O)O)NC(=O)[C@@H](Cc2c[nH]c3ccccc23)NC1=O [BQ123, reference compound] (HELM PEPTIDE1{L.[dW].[dD].P.[dV]}$PEPTIDE1,PEPTIDE1,1:R1-5:R2$$$V2.0) | 2.56 nM |  |  |  |  |  |  | 1 to 10 nM

Source: US20240417395A1, “DUAL ANTAGONIST AND USE THEREOF” (NICOYA THERAPEUTICS (SHANGHAI) CO., LTD, priority 2021, published 2024)
